Target: MAPK14 (UniProt Q16539)
Assay: Inhibition of MAPK14 Kinase Activity

MAPK14, sequence (Q16539 whole entry, looked up): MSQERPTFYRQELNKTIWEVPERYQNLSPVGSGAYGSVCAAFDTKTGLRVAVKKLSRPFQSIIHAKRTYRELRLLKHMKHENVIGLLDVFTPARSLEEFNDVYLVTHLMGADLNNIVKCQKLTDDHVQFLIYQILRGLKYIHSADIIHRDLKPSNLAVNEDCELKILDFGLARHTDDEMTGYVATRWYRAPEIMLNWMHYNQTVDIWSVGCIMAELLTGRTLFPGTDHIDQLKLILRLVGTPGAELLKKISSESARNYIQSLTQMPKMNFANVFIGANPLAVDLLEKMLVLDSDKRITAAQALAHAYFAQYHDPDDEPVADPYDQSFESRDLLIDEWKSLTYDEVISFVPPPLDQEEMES

Row | SMILES | IC50 [µM]
1 | C[C@@H](CO)n1cnc(-c2ccc(F)cc2)c1-c1ccncn1 | < 50
2 | CCCSc1nccc(-c2c(-c3ccc(F)cc3)ncn2[C@@H](C)CO)n1 | < 50
3 | COc1nccc(-c2c(-c3ccc(F)cc3)ncn2[C@@H](CO)c2ccccc2)n1 | < 50
4 | COc1nccc(-c2c(-c3ccc(F)cc3)ncn2C(CO)CO)n1 | < 50
5 | CCCSc1nccc(-c2c(-c3ccc(F)cc3)ncn2C(C)CC(=O)OC)n1 (stereo unspecified) | < 50
6 | CCCSc1nccc(-c2c(-c3ccc(F)cc3)ncn2[C@H](C)CO)n1 | < 50
7 | CCCSc1nccc(-c2c(-c3ccc(F)cc3)ncn2[C@H](CC)CO)n1 | < 50
8 | CNc1nccc(-c2c(-c3ccc(F)cc3)ncn2C(C)CO)n1 (stereo unspecified) | < 50
9 | CCCSc1nccc(-c2c(-c3ccc(F)cc3)ncn2[C@@H](CC)CO)n1 | < 50
10 | COc1nccc(-c2c(-c3ccc(F)cc3)ncn2C(C)COc2ccccc2)n1 (stereo unspecified) | < 50
11 | CNc1nccc(-c2c(-c3ccc(F)cc3)ncn2[C@H](CO)c2ccccc2)n1 | < 50
12 | COc1nccc(-c2c(-c3ccc(F)cc3)ncn2[C@H](CO)c2ccccc2)n1 | < 50
13 | CCCSc1nccc(-c2c(-c3ccc(F)cc3)ncn2C(C)CN(C)C)n1 (stereo unspecified) | < 50
14 | COc1nccc(-c2c(-c3ccc(F)cc3)ncn2C(C)CO)n1 (stereo unspecified) | < 50
15 | COc1nccc(-c2c(-c3ccc(F)cc3)ncn2[C@@H](CO)Cc2ccccc2)n1 | < 50
16 | CC[C@H](CO)n1cnc(-c2ccc(F)cc2)c1-c1ccnc(OC)n1 | < 50
17 | CCCSc1nccc(-c2c(-c3ccc(F)cc3)ncn2C(CO)CO)n1 | < 50
18 | CCCSc1nccc(-c2c(-c3ccc(F)cc3)ncn2[C@H](CO)c2ccccc2)n1 | < 50
19 | CC[C@H](CO)n1cnc(-c2ccc(F)cc2)c1-c1ccnc(NC)n1 | < 50
20 | CC[C@@H](CO)n1cnc(-c2ccc(F)cc2)c1-c1ccnc(NC)n1 | < 50
21 | C[C@@H](CO)n1cnc(-c2ccc(F)cc2)c1-c1ccnc(Nc2ccccc2)n1 | < 50
22 | CNc1nccc(-c2c(-c3ccc(F)cc3)ncn2[C@@H](CO)c2ccccc2)n1 | < 50
23 | COc1nccc(-c2c(-c3ccc(F)cc3)ncn2C(C)CN(C)C)n1 (stereo unspecified) | < 50
24 | CCCSc1nccc(-c2c(-c3ccc(F)cc3)ncn2[C@@H](CO)c2ccccc2)n1 | < 50
25 | CC[C@@H](CO)n1cnc(-c2ccc(F)cc2)c1-c1ccnc(OC)n1 | < 50
26 | COc1nccc(-c2c(-c3ccc(F)cc3)ncn2[C@H](CO)Cc2ccccc2)n1 | < 50

From the Kinase Knowledgebase extract (Sharma et al. 2016)
